Source: patent US11312727B1, “Macrocyclic flu endonuclease inhibitors” (Janssen BioPharma, Inc., priority 2018, dated 2022)

What was measured:
[1] = in vitro; conditions: human, CC50, uninfected A549 cells, CellTiter-Glo
[2] = tested on: Influenza strain A549 A/WSN/33 (H1N1); assay: microbe, parasite or virus in culture; type: cell-based; conditions: Influenza A virus, A549, 20 h, A549 cells, influenza A/WSN/33 (H1N1), 20 hours incubation; read-out: A549_A(H1N1) EC50

CC(C)[C@@H]1/C=C/COc2cc(F)c(F)c3c2[C@H](c2ccccc2SC3)N2CN1C(=O)c1c(O)c(=O)ccn12 (single isomer, unassigned) [Compound 169BB, (9*R,17a*R,*E)-24,25-difluoro-12-hydroxy-9-isopropyl-2,6,9,17a-tetrahydro-3,4-(epiprop[1]en[1]yl[3]ylidene)-10,17-methanobenzo[6,7]thiepino[4,5-c]pyrido[1,2-f][1]oxa[5,6,9]triazacyclotridecine-11,13-dione]
CC50 [1]: > 100 nM
EC50 [2]: 1.3 nM

CC[C@H]1/C=C/COc2c(ccc(Cl)c2F)[C@H](c2ccccc2)N2CN1C(=O)c1c(O)c(=O)ccn12 (single isomer, unassigned) [Compound 170AA, (9*S,18*S,E)-3-chloro-9-ethyl-4-fluoro-12-hydroxy-18-phenyl-6,9-dihydro-18H-10,17-methanobenzo[b]pyrido[1,2-f][1]oxa[5,6,9]triazacyclotridecine-11,13-dione]
CC50 [1]: > 100 nM
EC50 [2]: > 50 nM

CC[C@@H]1/C=C/COc2c(ccc(Cl)c2F)[C@H](c2ccccc2)N2CN1C(=O)c1c(O)c(=O)ccn12 (single isomer, unassigned) [Compound 170AB, (9*R,18*S,E)-3-chloro-9-ethyl-4-fluoro-12-hydroxy-18-phenyl-6,9-dihydro-18H-10,17-methanobenzo[b]pyrido[1,2-f][1]oxa[5,6,9]triazacyclotridecine-11,13-dione]
CC50 [1]: > 100 nM
EC50 [2]: > 50 nM

Cc1cccnc1[C@@H]1c2ccc(F)c(F)c2OC/C=C/C2(CCC2)N2CN1n1ccc(=O)c(O)c1C2=O (single isomer, unassigned) [Compound 171A, (18′*S,*E)-3′,4′-difluoro-12′-hydroxy-18′-(3-methylpyridin-2-yl)-6′H,18′H-spiro[cyclobutane-1,9′-[10,17]methanobenzo[b]pyrido[1,2-f][1]oxa[5,6,9]triazacyclotridecine]-11′,13′-dione]
CC50 [1]: > 100 nM
EC50 [2]: 1.3 nM

O=C1c2c(O)c(=O)ccn2N2CN1C1(/C=C/COc3c(ccc(F)c3F)[C@@H]2c2ccccn2)CCC1 (single isomer, unassigned) [Compound 172B, (18′*R,*E)-3′,4′-difluoro-12′-hydroxy-18′-(pyridin-2-yl)-6′H,18′H-spiro[cyclobutane-1,9′-[10,17]methanobenzo[b]pyrido[1,2-f][1]oxa[5,6,9]triazacyclotridecine]-11′,13′-dione]
CC50 [1]: > 100 nM
EC50 [2]: > 50 nM

O=C1c2c(O)c(=O)ccn2N2CN1[C@@H]1C[C@@H]1CCOc1cccc3c1[C@@H]2c1ccccc1SC3 (stereo in doubt) [Compound 166A, cis-(11a*RS,12a*RS,13S,20a*R)-15-hydroxy-6,11,11a,12,12a,20a-hexahydro-10H-7,8-(epiprop[1]en[1]yl[3]ylidene)-13,20-methanobenzo[6,7]thiepino[4,5-c]cyclopropa[j]pyrido[1,2-f][1]oxa[5,6,9]triazacyclotridecine-14,16-dione]
CC50 [1]: > 100 nM
EC50 [2]: > 50 nM

O=C1c2c(O)c(=O)ccn2N2CN1CCC=CCc1ccccc1C2c1ccccc1 (stereo not drawn) [Compound 1, 4-hydroxy-16-phenyl-7,8,11,16-tetrahydro-6,17-methanobenzo[k]pyrido[1,2-b][1,2,5]triazacyclotridecine-3,5-dione]
CC50 [1]: > 2000 nM
EC50 [2]: 43 nM

O=C1c2c(O)c(=O)ccn2N2CN1CCCCCCc1ccccc1C2c1ccccc1 (stereo not drawn) [Compound 2, 15-hydroxy-2-phenyl-12,13,14,16-tetrahydro-11H-1(1,3)-pyrido[2,1-f][1,2,4]triazina-3(1,2)-benzenacyclononaphane-14,16-dione]
CC50 [1]: > 20000 nM
EC50 [2]: 354 nM

O=C1c2c(O)c(=O)ccn2N2CN1CCCCCc1ccccc1C2c1ccccc1 (stereo not drawn) [Compound 4, 4-hydroxy-16-phenyl-7,8,9,10,11,16-hexahydro-6,17-methanobenzo[k]pyrido[1,2-b][1,2,5]triazacyclotridecine-3,5-dione]
CC50 [1]: > 4000 nM
EC50 [2]: 48 nM

O=C1c2c(O)c(=O)ccn2N2CN1C/C=C\COc1ccccc1[C@H]2c1ccccc1 [Compound 5A, (18R,Z)-12-hydroxy-18-phenyl-6,9-dihydro-18H-10,17-methanobenzo[b]pyrido[1,2-f][1]oxa[5,6,9]triazacyclotridecine-11,13-dione]
CC50 [1]: > 2000 nM
EC50 [2]: 8 nM

O=C1c2c(O)c(=O)ccn2N2CN1C/C=C\COc1ccccc1[C@@H]2c1ccccc1 [Compound 5B, (18S,Z)-12-hydroxy-18-phenyl-6,9-dihydro-18H-10,17-methanobenzo[b]pyrido[1,2-f][1]oxa[5,6,9]triazacyclotridecine-11,13-dione]
CC50 [1]: > 2000 nM
EC50 [2]: > 1000 nM

O=C1c2c(O)c(=O)ccn2N2CN1C/C=C\COc1ccccc1C2c1ccccc1 (stereo not drawn) [Compound 5]
CC50 [1]: > 2000 nM
EC50 [2]: 26 nM

O=C1c2c(O)c(=O)ccn2N2CN1C/C=C/CCOc1cccc(c1)C2c1ccccc1 (stereo not drawn) [Compound 6, (*E)-15-hydroxy-2-phenyl-12,13,14,16-tetrahydro-11H-4-oxa-1(1,3)-pyrido[2,1-f][1,2,4]triazina-3(1,3)-benzenacyclononaphan-7-ene-14,16-dione]
CC50 [1]: > 20000 nM
EC50 [2]: 6150 nM

O=C1c2c(O)c(=O)ccn2N2CN1CCCCOc1ccccc1C2c1ccccc1 (stereo not drawn) [Compound 8, 12-hydroxy-18-phenyl-6,7,8,9-tetrahydro-18H-10,17-methanobenzo[b]pyrido[1,2-f][1]oxa[5,6,9]triazacyclotridecine-11,13-dione]
CC50 [1]: > 2000 nM
EC50 [2]: 59 nM

O=C1c2c(O)c(=O)ccn2N2CN1CCCCOc1ccccc1[C@H]2c1ccccc1 [Compound 8A, (18R)-12-hydroxy-18-phenyl-6,7,8,9-tetrahydro-18H-10,17-methanobenzo[b]pyrido[1,2-f][1]oxa[5,6,9]triazacyclotridecine-11,13-dione]
CC50 [1]: > 2000 nM
EC50 [2]: 13 nM

O=C1c2c(O)c(=O)ccn2N2CN1CCCCOc1ccccc1[C@@H]2c1ccccc1 [Compound 8B, (18S)-12-hydroxy-18-phenyl-6,7,8,9-tetrahydro-18H-10,17-methanobenzo[b]pyrido[1,2-f][1]oxa[5,6,9]triazacyclotridecine-11,13-dione]
CC50 [1]: > 2000 nM
EC50 [2]: 4130 nM

O=C1c2c(O)c(=O)ccn2N2CN1CCCCCOc1ccccc1C2c1ccccc1 (stereo not drawn) [Compound 9, 15-hydroxy-2-phenyl-12,13,14,16-tetrahydro-11H-4-oxa-1(1,3)-pyrido[2,1-f][1,2,4]triazina-3(1,2)-benzenacyclononaphane-14,16-dione]
CC50 [1]: > 2000 nM
EC50 [2]: 453 nM

O=C1c2c(O)c(=O)ccn2N2CN1CC/C=C/COc1ccccc1[C@@H]2c1ccccc1 [Compound 10A, (2S,E)-15-hydroxy-2-phenyl-12,13,14,16-tetrahydro-11H-4-oxa-1(1,3)-pyrido[2,1-f][1,2,4]triazina-3(1,2)-benzenacyclononaphan-6-ene-14,16-dione]
CC50 [1]: > 2000 nM
EC50 [2]: > 1000 nM

O=C1c2c(O)c(=O)ccn2N2CN1CC/C=C/COc1ccccc1[C@H]2c1ccccc1 [Compound 10B, (2R,E)-15-hydroxy-2-phenyl-12,13,14,16-tetrahydro-11H-4-oxa-1(1,3)-pyrido[2,1-f][1,2,4]triazina-3(1,2)-benzenacyclononaphan-6-ene-14,16-dione]
CC50 [1]: > 2000 nM
EC50 [2]: 13 nM

O=C1c2c(O)c(=O)ccn2N2CN1CCCCCCc1ccccc1C2c1ccccn1 (stereo not drawn) [Compound 11, 15-hydroxy-2-(pyridin-2-yl)-12,13,14,16-tetrahydro-11H-1(1,3)-pyrido[2,1-f][1,2,4]triazina-3(1,2)-benzenacyclononaphane-14,16-dione]
CC50 [1]: > 2000 nM
EC50 [2]: 363 nM

O=C1c2c(O)c(=O)ccn2N2CN1CCCCCc1ccccc1C2c1ccccn1 (stereo not drawn) [Compound 12, 4-hydroxy-16-(pyridin-2-yl)-7,8,9,10,11,16-hexahydro-6,17-methanobenzo[k]pyrido[1,2-b][1,2,5]triazacyclotridecine-3,5-dione]
CC50 [1]: > 2000 nM
EC50 [2]: 86 nM

O=C1c2c(O)c(=O)ccn2N2CN1CC/C=C/CCc1ccccc1C2c1ccccc1 (stereo not drawn) [Compound 14, (*E)-15-hydroxy-2-phenyl-12,13,14,16-tetrahydro-11H-1(1,3)-pyrido[2,1-f][1,2,4]triazina-3(1,2)-benzenacyclononaphan-6-ene-14,16-dione]
CC50 [1]: > 4000 nM
EC50 [2]: 48 nM

O=C1c2c(O)c(=O)ccn2N2CN1CCC/C=C\Cc1ccccc1C2c1ccccn1 (stereo not drawn) [Compound 15, (Z)-15-hydroxy-2-(pyridin-2-yl)-12,13,14,16-tetrahydro-11H-1(1,3)-pyrido[2,1-f][1,2,4]triazina-3(1,2)-benzenacyclononaphan-5-ene-14,16-dione]
CC50 [1]: > 20000 nM
EC50 [2]: 635 nM

O=C1c2c(O)c(=O)ccn2N2CN1C/C=C/COCc1ccccc1C2c1ccccc1 (stereo not drawn) [Compound 17, (E)-15-hydroxy-2-phenyl-12,13,14,16-tetrahydro-11H-5-oxa-1(1,3)-pyrido[2,1-f][1,2,4]triazina-3(1,2)-benzenacyclononaphan-7-ene-14,16-dione]
CC50 [1]: > 20000 nM
EC50 [2]: 77 nM

O=C1CCN2CN(C(c3ccccc3)c3ccccc3CN1)n1ccc(=O)c(O)c1C2=O (stereo not drawn) [Compound 18, 12-hydroxy-18-phenyl-5,8,9,18-tetrahydro-10,17-methanobenzo[k]pyrido[1,2-b][1,2,5,9]tetraazacyclotridecine-7,11,13(6H)-trione]
CC50 [1]: > 200000 nM
EC50 [2]: 7910 nM

O=C1c2c(O)c(=O)ccn2N2CN1C/C=C\CCOc1ccccc1C2c1ccccc1 (stereo not drawn) [Compound 19, (*Z)-15-hydroxy-2-phenyl-12,13,14,16-tetrahydro-11H-4-oxa-1(1,3)-pyrido[2,1-f][1,2,4]triazina-3(1,2)-benzenacyclononaphan-7-ene-14,16-dione]
CC50 [1]: > 2000 nM
EC50 [2]: 260 nM

O=C1c2c(O)c(=O)ccn2N2CN1CCC/C=C\c1cccc3c1[C@H]2c1ccccc1CC3 [Compound 31B, (19bR,Z)-4-hydroxy-8,9,15,19b-tetrahydro-7H,14H-13,12-(epiprop[1]en[1]yl[3]ylidene)-6,20-methanobenzo[3,4]cyclohepta[1,2-1]pyrido[1,2-b][1,2,5]triazacyclotridecine-3,5-dione]
CC50 [1]: > 2000 nM
EC50 [2]: 4 nM
